16 molecules from patent US20250313575A1, “MACROCYCLES AS LRRK2 INHIBITORS, PHARMACEUTICAL COMPOSITIONS, AND USES THEREOF” (Merck Sharp & Dohme LLC, priority 2022, published 2025) can be followed below.

Molecules are shown by their SMILES. Where only a bound is given, the exact number is not on record here.

This test addresses GST-tagged truncated human mutant G2019S LRRK2 (Homo sapiens (Human), UniProt Q5S007, G2019S). The test is described as follows: LRRK2 G2019S Km ATP LanthaScreen assay. Type of test: biochemical. To be noted: G2019S LRRK2, 134 μM ATP (Km ATP), LRRKtide substrate. An outline of the steps: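 Ten-point compound series (highest 9.99 μM in DMSO) preincubated 15 min with 1.25 nM GST-tagged truncated human LRRK2 G2019S, then 90 min reaction at ambient temperature with 134 μM ATP (Km) and fluorescein-labelled LRRKtide, pH 8.5. Phosphorylation read as 520/495 nm emission ratio via Tb-labelled antibody; IC50 from 4P logistic regression.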

Chain of GST-tagged truncated human mutant G2019S LRRK2 (Q5S007 970-2527 G2019S): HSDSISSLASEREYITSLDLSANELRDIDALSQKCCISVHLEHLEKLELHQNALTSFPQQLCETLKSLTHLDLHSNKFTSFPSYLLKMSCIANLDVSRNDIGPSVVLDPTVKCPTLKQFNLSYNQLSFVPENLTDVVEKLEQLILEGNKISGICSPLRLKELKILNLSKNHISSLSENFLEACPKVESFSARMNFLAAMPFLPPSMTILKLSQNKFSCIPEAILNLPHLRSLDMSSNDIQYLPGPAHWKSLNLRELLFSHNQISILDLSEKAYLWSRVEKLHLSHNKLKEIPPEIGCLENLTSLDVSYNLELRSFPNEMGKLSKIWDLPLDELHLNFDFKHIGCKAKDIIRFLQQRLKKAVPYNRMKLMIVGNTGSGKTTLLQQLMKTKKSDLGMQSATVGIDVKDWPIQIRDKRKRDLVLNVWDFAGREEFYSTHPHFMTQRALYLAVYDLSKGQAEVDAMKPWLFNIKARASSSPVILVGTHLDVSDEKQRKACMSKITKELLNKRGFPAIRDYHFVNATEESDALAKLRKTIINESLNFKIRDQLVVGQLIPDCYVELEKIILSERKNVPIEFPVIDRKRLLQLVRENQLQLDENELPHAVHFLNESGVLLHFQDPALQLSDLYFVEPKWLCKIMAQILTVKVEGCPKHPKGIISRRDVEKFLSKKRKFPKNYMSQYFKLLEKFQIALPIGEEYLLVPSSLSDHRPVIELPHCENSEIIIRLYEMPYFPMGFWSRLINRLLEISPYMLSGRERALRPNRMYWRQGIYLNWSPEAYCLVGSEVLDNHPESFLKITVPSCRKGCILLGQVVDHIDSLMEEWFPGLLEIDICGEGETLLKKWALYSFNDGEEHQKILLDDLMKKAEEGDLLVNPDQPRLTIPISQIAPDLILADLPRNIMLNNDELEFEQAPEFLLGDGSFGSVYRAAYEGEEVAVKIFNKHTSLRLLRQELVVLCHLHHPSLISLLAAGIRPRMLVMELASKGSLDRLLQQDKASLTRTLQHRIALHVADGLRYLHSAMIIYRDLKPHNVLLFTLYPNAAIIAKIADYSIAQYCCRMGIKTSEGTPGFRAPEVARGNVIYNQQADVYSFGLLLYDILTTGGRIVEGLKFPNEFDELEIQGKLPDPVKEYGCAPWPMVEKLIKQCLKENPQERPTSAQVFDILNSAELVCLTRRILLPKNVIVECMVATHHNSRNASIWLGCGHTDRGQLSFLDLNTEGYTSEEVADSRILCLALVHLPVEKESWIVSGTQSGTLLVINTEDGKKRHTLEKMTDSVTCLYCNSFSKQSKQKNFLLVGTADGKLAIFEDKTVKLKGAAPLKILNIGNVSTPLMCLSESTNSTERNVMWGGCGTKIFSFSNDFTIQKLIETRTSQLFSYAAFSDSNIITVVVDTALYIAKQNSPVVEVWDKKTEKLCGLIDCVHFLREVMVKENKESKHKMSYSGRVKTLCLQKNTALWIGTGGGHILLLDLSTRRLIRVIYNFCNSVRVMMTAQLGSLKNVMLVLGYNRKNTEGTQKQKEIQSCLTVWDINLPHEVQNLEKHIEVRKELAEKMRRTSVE

As to `COC1CCC1n1nc(C)c2c1Nc1ncc(C(F)(F)F)c(n1)NC1COCC1CO2` [Ex-2.41, (10aS,13aS)-3-((1R,2R)-(10aS,13aS)-3-((1S,2R)-(10aS,13aS)-3-((1R,2S)-(10aS,13aS)-3-((1R,2R)-(10aR,13aR)-3-((1S,2R)-(10aR,13aR)-3-((1R,2S)-2-methoxycyclobutyl)-1-methyl-8-(trifluoromethyl)-3,4,10a,11,13a,14-hexahydro-10H,13H-5,9-(azeno)furo[3,4-k]pyrazolo[4,3-b][1]oxa[4,6,10]triazacyclotridecine], the “LRRK2 pIC50” value was 6.51.

With `Cc1c2c(nn1C1CC1)Nc1ncc(C(F)(F)F)c(n1)N[C@@H](C)CCO2` (single isomer, unassigned) [Ex-17.1, (R)- or (S)-2-cyclopropyl-3,7-dimethyl-10-(trifluoromethyl)-2,5,6,7,8,14-hexahydro-9,13-(azeno)pyrazolo[4,3-b][1]oxa[4,6,10]triazacyclotridecine], the “LRRK2 pIC50” value was determined as 6.63.

As to `Cc1nn2c(c1C)Nc1ncc(C(F)(F)F)c(n1)N[C@@H](C)CCC2` (single isomer, unassigned) [Ex-16.1, 8,14,15-Trimethyl-5-(trifluoromethyl)-8,9,10,11-tetrahydro-1H,7H-2,6-(azeno)pyrazolo[1,5-a][1,3,5,9]tetraazacyclotridecine], the “LRRK2 pIC50” value stood at 7.70.

For `Cc1nn(C2CCC2)c2c1OC1COC[C@H]1CNc1nc(ncc1C(F)(F)F)N2` (stereo partly drawn) [Ex-2.80, (11aR,14aR)-3-cyclobutyl-1-methyl-8-(trifluoromethyl)-3,4,10,11,11a,12,14,14a-octahydro-5,9-(azeno)furo[3,4-1]pyrazolo [4,3-b][1]oxa[4,6,10]triazacyclotridecine (11aS,14aS)-3-cyclobutyl-1-methyl-8-(trifluoromethyl)-3,4,10,11,11a,12,14,14a-octahydro-5,9-(azeno)furo[3,4-1]pyrazolo[4,3-b][1]oxa[4,6,10]triazacyclotridecine], the “LRRK2 pIC50” value is recorded as 7.57.

In the case of `Cc1nn(C2CC2)c2c1O[C@@H]1CC[C@@H]1CNc1nc(ncc1C(F)(F)F)N2` [Ex-2.85, (11aR,13aR)- or (11aS,13aS)-3-cyclopropyl-1-methyl-8-(trifluoromethyl)-3,4,10,11,11a,12,13,13a-octahydro-5,9-(azeno)cyclobuta[I]pyrazolo[4,3-b][1]oxa[4,6,10]triazacyclotridecine], the “LRRK2 pIC50” value is 8.74.

For `Cc1nn(C)c2c1OCC1CC[C@H]1Nc1nc(ncc1C(F)(F)F)N2` (stereo partly drawn) [Ex-2.11, (10aR,12aS)- or (10aS,12aR)-1,3-dimethyl-8-(trifluoromethyl)-3,4,10,10a,11,12,12a,13-octahydro-5,9-(azeno)cyclobuta[k]pyrazolo[4,3-b][1]oxa[4,6,10]triazacyclotridecine], the “LRRK2 pIC50” value is greater than 10.09.

On to `Cc1nn(C(C)C)c2c1OC[C@@H]1CC[C@H]1Nc1nc(ncc1Cl)N2` [Ex-2.61, (10aR,12aR)-8-chloro-3-isopropyl-1-methyl-3,4,10,10a,11,12,12a,13-octahydro-5,9-(azeno)cyclobuta[k]pyrazolo[4,3-b][1]oxa[4,6,10]triazacyclotridecine], for which the “LRRK2 pIC50” value amounted to 9.60.

Turning to `COC1CCC1n1nc(C)c2c1Nc1ncc(C(F)(F)F)c(n1)NC1COCC1CO2` [Ex-2.37, (10aS,13aS)-3-((1R,2R)-(10aS,13aS)-3-((1S,2R)-(10aS,13aS)-3-((1R,2S)-(10aS,13aS)-3-((1R,2R)-(10aR,13aR)-3-((1S,2R)-(10aR,13aR)-3-((1R,2S)-2-methoxycyclobutyl)-1-methyl-8-(trifluoromethyl)-3,4,10a,11,13a,14-hexahydro-10H,13H-5,9-(azeno)furo[3,4-k]pyrazolo[4,3-b][1]oxa[4,6,10]triazacyclotridecine], the “LRRK2 pIC50” value is 6.00.

In the case of `Cc1nn(C2CC2(F)F)c2c1OCC1COCC1Nc1nc(ncc1C(F)(F)F)N2` [Ex-2.59, (10aS,13aS)-3-((R)-2,2-difluorocyclopropyl)-1-methyl-8-(trifluoromethyl)-3,4,10a,11,13a,14-hexahydro-10H,13H-5,9-(azeno)furo[3,4-k]pyrazolo[4,3-b][1]oxa[4,6,10]triazacyclotridecine (10aS,13aS)-3-((S)-2,2-difluorocyclopropyl)-1-methyl-8-(trifluoromethyl)-3,4,10a,11,13a, 14-hexahydro-10H,13H-5,9-(azeno)furo[3,4-k]pyrazolo[4,3-b|[1]oxa|4,6,10]triazacyclotridecine], the “LRRK2 pIC50” value came to 9.71.

For `OCc1nn(C2CCC2)c2c1OC[C@@H]1COC[C@H]1Nc1nc(ncc1C(F)(F)F)N2` [Ex-6.6, ((10aS,13aS)-3-cyclobutyl-8-(trifluoromethyl)-3,4,10a,11,13a,14-hexahydro-10H,13H-5,9-(azeno)furo[3,4-k]pyrazolo[4,3-b][1]oxa[4,6,10]triazacyclotridecin-1-yl)methanol], the “LRRK2 pIC50” value is recorded as greater than 10.09.

For the molecule `COc1cccc2c1Nc1ncc(C(F)(F)F)c(n1)N[C@H]1COC[C@@H]1CO2` [Ex-15.1], the “LRRK2 pIC50” value is greater than 10.09.

For the molecule `Cn1nc(C2CC2)c2c1OCC1COCC1Nc1nc(ncc1C(F)(F)F)N2` [Ex-1.6, (10aS,13aS)- or (10aR,13aR)-3-cyclopropyl-1-methyl-8-(trifluoromethyl)-1,4,10a,11,13a,14-hexahydro-10H,13H-5,9-(azeno)furo[3,4-k]pyrazolo[3,4-b][1]oxa[4,6,10]triazacyclotridecine], the “LRRK2 pIC50” value was found to be 6.92.

On to `FC(F)(F)c1cnc2nc1N[C@@H]1COC[C@H]1COc1cccc(Br)c1N2` [Ex-15.4, (3aS,16aS)-11-bromo-6-(trifluoromethyl)-3a,4,16,16a-tetrahydro-1H,3H,10H-5,9-(azeno)benzo[b]furo[3,4-k][1]oxa[4,6,10]triazacyclotridecine], for which the “LRRK2 pIC50” value was 9.12.

Regarding `COC1CCC1n1nc(C)c2c1Nc1ncc(C(F)(F)F)c(n1)NC1COCC1CO2` [Ex-2.39, (10aS,13aS)-3-((1R,2R)-(10aS,13aS)-3-((1S,2R)-(10aS,13aS)-3-((1R,2S)-(10aS,13aS)-3-((1R,2R)-(10aR,13aR)-3-((1S,2R)-(10aR,13aR)-3-((1R,2S)-2-methoxycyclobutyl)-1-methyl-8-(trifluoromethyl)-3,4,10a,11,13a,14-hexahydro-10H,13H-5,9-(azeno)furo[3,4-k]pyrazolo[4,3-b][1]oxa[4,6,10]triazacyclotridecine], the “LRRK2 pIC50” value is recorded as 6.32.

Consider `Cc1nn(C)c2c1Nc1ncc(C(F)(F)F)c(n1)N[C@H](C)CCO2` [Ex-1.4, (R)-1,3,11-trimethyl-8-(trifluoromethyl)-1,4,10,11,12,13-hexahydro-5,9-(azeno)pyrazolo[3,4-b][1]oxa[4,6,10]triazacyclotridecine], for which the “LRRK2 pIC50” value was determined as 8.93.

For the molecule `CCOC(=O)[C@@H]1C[C@@H]1c1nn(C(C)C)c2c1OC[C@@H]1COC[C@H]1Nc1nc(ncc1C(F)(F)F)N2` [Ex-2.47, ethyl (1R,2S)- or ethyl (1S,2R)-2-((10aS,13aS)-3-isopropyl-8-(trifluoromethyl)-3,4,10a,11,13a,14-hexahydro-10H,13H-5,9-(azeno)furo[3,4-k]pyrazolo[4,3-b][1]oxa[4,6,10]triazacyclotridecin-1-yl)cyclopropane-1-carboxylate], the “LRRK2 pIC50” value is reported as greater than 10.09.
